Reference: patent publication US20250073340A1, “SPIROCYCLIC MDM2 MODULATOR AND USES THEREOF” (Newave Pharmaceutical Inc., priority 2021, published 2025)

Assays:
[1] = test system: BCL-2-dependent acute lymphoblastic leukemia (ALL) cell line RS4;11 overexpressing Bcl-2 G101V; experiment: cells; format: cell-based; settings: Homo sapiens, RS4-11; about 72 hours, ATPlite luminescence; read-out: RS4;11-G101V IC50
Procedure: Biological Example 2: In vitro Anti-proliferation Assay in BCL-2-dependent acute lymphoblastic leukemia (ALL) cell line RS4; 11 overexpressing Bcl-2 G101V
Cell antiproliferation was assayed by PerkinElmer ATPlite™ Luminescence Assay System. Briefly, the various test cancer cell lines were plated at a density of about 1×10^4 cells per well in Costar 96-well plates, and were incubated with different concentrations of compounds for about 72 hours in medium supplemented with 5% FBS or 10% normal human serum (NHS). One lyophilized substrate solution vial was then reconstituted by adding 5 mL of substrate buffer solution, and was agitated gently until the solution was homogeneous. About 50 μL of mammalian cell lysis solution was added to 100 μL of cell suspension per well of a microplate, and the plate was shaken for about five minutes in an orbital shaker at −700 rpm. This procedure was used to lyse the cells and to stabilize the ATP. Next, 50 μL substrate solution was added to the wells and microplate was shaken for five minutes in an orbital shaker at −700 rpm. Finally, the luminescence was measured by a PerkinElmer TopCount® Microplate Scintillation Counter. Such assays, carried out with a range of doses of test compounds, allowed the determination of the cellular anti-antiproliferative IC50 of the compounds of the present invention.

[2] = target: MDM2 (Homo sapiens (Human), UniProt Q00987); experiment: In vitro MDM2 HTRF assay (inhibition of p53-MDM2 interaction); format: binding; settings: GST-MDM2 / biotinylated p53 peptide
MDM2, sequence (Q00987 whole entry): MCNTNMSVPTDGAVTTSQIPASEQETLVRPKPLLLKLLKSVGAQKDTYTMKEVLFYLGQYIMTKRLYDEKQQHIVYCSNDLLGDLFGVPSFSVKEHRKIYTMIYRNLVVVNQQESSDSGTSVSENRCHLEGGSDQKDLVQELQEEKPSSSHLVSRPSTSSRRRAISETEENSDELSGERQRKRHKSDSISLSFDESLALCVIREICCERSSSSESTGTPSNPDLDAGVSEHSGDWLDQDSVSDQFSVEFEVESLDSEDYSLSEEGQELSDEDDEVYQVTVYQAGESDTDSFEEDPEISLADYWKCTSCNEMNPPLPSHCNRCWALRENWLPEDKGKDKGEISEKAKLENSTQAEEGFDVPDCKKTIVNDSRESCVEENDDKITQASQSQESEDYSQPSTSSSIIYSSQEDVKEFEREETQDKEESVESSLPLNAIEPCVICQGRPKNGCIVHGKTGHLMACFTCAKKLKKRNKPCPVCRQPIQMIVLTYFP

Compound	IC50 [1] [nM]	IC50 [2] [nM]
CC(C)(C)C[C@@H]1N[C@@H](C(=O)N2CCOc3cc(C(N)=O)ccc32)[C@H](c2cccc(Cl)c2F)[C@]12CNc1cc(Cl)ccc12 [Example 14, 4-((2′S,3S,4′S,5′R)-6-chloro-4′-(3-chloro-2-fluorophenyl)-2′-neopentylspiro[indoline-3,3′-pyrrolidine]-5′-carbonyl)-3,4-dihydro-2H-benzo[b][1,4]oxazine-7-carboxamide]	> 1000	114
CC(C)(C)C[C@H]1N[C@H](C(=O)N2CCOc3cc(C(N)=O)ccc32)[C@@H](c2cccc(Cl)c2F)[C@@]12CNc1cc(Cl)ccc12 [Example 15, 4-((2′R,3R,4′R,5′S)-6-chloro-4′-(3-chloro-2-fluorophenyl)-2′-neopentylspiro[indoline-3,3′-pyrrolidine]-5′-carbonyl)-3,4-dihydro-2H-benzo[b][1,4]oxazine-7-carboxamide]	> 1000	638
COc1cc(C(=O)NCCCC#Cc2cccc3c2CN(C2CCC(=O)NC2=O)C3=O)ccc1NC(=O)[C@@H]1N[C@@H](CC(C)(C)C)[C@@]2(CNc3cc(Cl)ccc32)[C@H]1c1cccc(Cl)c1F (stereo partly drawn) [Example 16, (2′S,3S,4′S,5′R)-6-chloro-4′-(3-chloro-2-fluorophenyl)-N-(4-((5-(2-(2,6-dioxopiperidin-3-yl)-1-oxoisoindolin-4-yl)pent-4-yn-1-yl)carbamoyl)-2-methoxyphenyl)-2′-neopentylspiro[indoline-3,3′-pyrrolidine]-5′-carboxamide]	10.1	1.54
COc1cc(C(=O)N2CCC(C#Cc3cccc4c3CN(C3CCC(=O)NC3=O)C4=O)CC2)ccc1NC(=O)[C@@H]1N[C@@H](CC(C)(C)C)[C@@]2(CNc3cc(Cl)ccc32)[C@H]1c1cccc(Cl)c1F (stereo partly drawn) [Example 20, (2′S,3S,4′S,5′R)-6-chloro-4′-(3-chloro-2-fluorophenyl)-2′-(2,2-dimethylpropyl)-N-[4-(4-{2-[2-(2,6-dioxopiperidin-3-yl)-1-oxo-3H-isoindol-4-yl]ethynyl}piperidine-1-carbonyl)-2-methoxyphenyl]-1,2-dihydrospiro[indole-3,3′-pyrrolidine]-5′-carboxamide]	31.9	3.67
COc1cc(C(=O)NC23CC(C#Cc4cccc5c4CN(C4CCC(=O)NC4=O)C5=O)(C2)C3)ccc1NC(=O)[C@@H]1N[C@@H](CC(C)(C)C)[C@@]2(CNc3cc(Cl)ccc32)[C@H]1c1cccc(Cl)c1F (stereo partly drawn) [Example 21, (2′S,3S,4′S,5′R)-6-chloro-4′-(3-chloro-2-fluorophenyl)-2′-(2,2-dimethylpropyl)-N-{4-[(3-{2-[2-(2,6-dioxopiperidin-3-yl)-1-oxo-3H-isoindol-4-yl]ethynyl}bicyclo[1.1.1]pentan-1-yl)carbamoyl]-2-methoxyphenyl}-1,2-dihydrospiro[indole-3,3′-pyrrolidine]-5′-carboxamide]	448	3.45
COc1cc(N2CCC[C@H](C#Cc3cccc4c3CN([C@@H]3CCC(=O)NC3=O)C4=O)C2)ccc1NC(=O)[C@@H]1N[C@@H](CC(C)(C)C)[C@@]2(CNc3cc(Cl)ccc32)[C@H]1c1cccc(Cl)c1F [Example 29, (2′S,3S,4′S,5′R)-6-chloro-4′-(3-chloro-2-fluorophenyl)-N-(4-((R)-3-((2-((R)-2,6-dioxopiperidin-3-yl)-1-oxoisoindolin-4-yl)ethynyl)piperidin-1-yl)-2-methoxyphenyl)-2′-neopentylspiro[indoline-3,3′-pyrrolidine]-5′-carboxamide]		12
COc1cc(N2CCC[C@@H](C#Cc3cccc4c3CN([C@H]3CCC(=O)NC3=O)C4=O)C2)ccc1NC(=O)[C@@H]1N[C@@H](CC(C)(C)C)[C@@]2(CNc3cc(Cl)ccc32)[C@H]1c1cccc(Cl)c1F [Example 30, (2′S,3S,4′S,5′R)-6-chloro-4′-(3-chloro-2-fluorophenyl)-N-(4-((S)-3-((2-((S)-2,6-dioxopiperidin-3-yl)-1-oxoisoindolin-4-yl)ethynyl)piperidin-1-yl)-2-methoxyphenyl)-2′-neopentylspiro[indoline-3,3′-pyrrolidine]-5′-carboxamide]		13.2
COc1cc(N2CCC[C@@H](C#Cc3cccc4c3CN([C@@H]3CCC(=O)NC3=O)C4=O)C2)ccc1NC(=O)[C@@H]1N[C@@H](CC(C)(C)C)[C@@]2(CNc3cc(Cl)ccc32)[C@H]1c1cccc(Cl)c1F [Example 31, (2′S,3S,4′S,5′R)-6-chloro-4′-(3-chloro-2-fluorophenyl)-N-(4-((S)-3-((2-((R)-2,6-dioxopiperidin-3-yl)-1-oxoisoindolin-4-yl)ethynyl)piperidin-1-yl)-2-methoxyphenyl)-2′-neopentylspiro[indoline-3,3′-pyrrolidine]-5′-carboxamide]		6.1

Compounds with a lower IC50 [2], results first:

IC50 [1] [nM]	IC50 [2] [nM]	Compound
11	0.58	COc1cc(C(N)=O)ccc1NC(=O)[C@@H]1N[C@@H](CC(C)(C)C)[C@@]2(CNc3cc(Cl)ncc32)[C@H]1c1cccc(Cl)c1F [Example 9, (2S,3S,4S,5R)—N-(4-carbamoyl-2-methoxyphenyl)-6′-chloro-4-(3-chloro-2-fluorophenyl)-2-(2,2-dimethylpropyl)-1′,2′-dihydrospiro[pyrrolidine-3,3′-pyrrolo[3,2-c]pyridine]-5-carboxamide]
44.7	0.18	COc1cc(C(N)=O)ccc1NC(=O)[C@@H]1N[C@@H](CC(C)(C)C)[C@@]2(CNc3cc(C(F)(F)F)ncc32)[C@H]1c1cccc(Cl)c1F [Example 11, (2S,3S,4S,5R)—N-(4-carbamoyl-2-methoxyphenyl)-4-(3-chloro-2-fluorophenyl)-2-(2,2-dimethylpropyl)-6′-(trifluoromethyl)-1′,2′-dihydrospiro[pyrrolidine-3,3′-pyrrolo[3,2-c]pyridine]-5-carboxamide]
3.82	1.36	COc1cc(C(=O)NCCCC#Cc2cccc3c2CN([C@@H]2CCC(=O)NC2=O)C3=O)ccc1NC(=O)[C@@H]1N[C@@H](CC(C)(C)C)[C@@]2(CNc3cc(Cl)ccc32)[C@H]1c1cccc(Cl)c1F [Example 17, (2′S,3S,4′S,5′R)-6-chloro-4′-(3-chloro-2-fluorophenyl)-N-(4-((5-(2-((R)-2,6-dioxopiperidin-3-yl)-1-oxoisoindolin-4-yl)pent-4-yn-1-yl)carbamoyl)-2-methoxyphenyl)-2′-neopentylspiro[indoline-3,3′-pyrrolidine]-5′-carboxamide]
5.91	1.3	COc1cc(C(=O)NCCCC#Cc2cccc3c2CN([C@H]2CCC(=O)NC2=O)C3=O)ccc1NC(=O)[C@@H]1N[C@@H](CC(C)(C)C)[C@@]2(CNc3cc(Cl)ccc32)[C@H]1c1cccc(Cl)c1F [Example 18, (2′S,3S,4′S,5′R)-6-chloro-4′-(3-chloro-2-fluorophenyl)-N-(4-((5-(2-((S)-2,6-dioxopiperidin-3-yl)-1-oxoisoindolin-4-yl)pent-4-yn-1-yl)carbamoyl)-2-methoxyphenyl)-2′-neopentylspiro[indoline-3,3′-pyrrolidine]-5′-carboxamide]
